Legend:
Format in all cases: cell-based, human
[1] = system: FLT3-ITD mutation-positive leukemia cell line MV-4-11; assay: Proliferation inhibitory activity against MV-4-11 by combined use of anti-cancer agents (CellTiter-Glo, combination index)
Procedure: <Evaluation of Proliferation Inhibitory Activity Against FLT3-ITD Mutation-Positive Leukemia Cell Line MV-4-11 by Combined Use of Anti-Cancer Agent>
MV-4-11 cells which are a human FLT3-ITD mutation-positive leukemia cell line were subcultured in an RPMI-1640 medium containing 10% serum. During this test, all cell cultures were performed in a CO2 incubator (setting: 37° C., 5% CO2, water vapor saturated). Cells were diluted with a medium containing 10% serum to 1,000 cells/well/20 μL and seeded on a 384-well plate.
After being serially diluted with DMSO and further being diluted with a medium containing 10% serum, each of the test substance solutions having a concentration 10 times the final treatment concentration was prepared.
(§1) In addition, a group (a positive control group) in which only a solvent containing no drugs was added to a well in which cells were plated and a group (a negative control group) in which only a solvent containing no drugs was added to a well in which only a medium was added were prepared.
After the addition of the drug, cells were cultured for 3 days, and the cell viability was evaluated using CellTiter-Glo (registered trade mark) Reagent (Cat. #G7570, manufactured by Promega Corporation) using the amount of ATP in the cells as an indicator.
(§2) The suppression rate was determined by assuming that the amount of luminescence signal in the negative control group corresponded to the suppression of cell viability by 100% and the amount of luminescence signal in the positive control group corresponded to the suppression of cell viability by 0%. The concentration (IC50 value) at which cell viability is suppressed by 50% was calculated using XLFit (registered trade mark) software Ver. 3 (manufactured by ITOCHU Techno-Solutions Corporation). The suppression effect (Fa, the fraction affected by the dose) was calculated by dividing the suppression rate by 100.
(§3) The combination effect of the present invention was determined by calculating the combination index (CI), which is a quantitative indicator of the combination effect, using CalcuSyn (BIOSOFT) based on the value of the suppression effect.
(§4) In the table, “Fa around 0.5” and “Fa around 0.75” mean the effect of suppressing the cell viability by about 50% and about 75%, respectively, in a case where drugs are used in combination.

[2] = system: Cell derived from FLT3-ITD mutation-positive leukemia patient; assay: Proliferation inhibitory activity against cells derived from a leukemia patient by combined use (CellTiter-Glo, combination index), FLT3-ITD positive
Procedure: (§5) <Evaluation of Proliferation Inhibitory Activity Against Cell Derived from Leukemia Patient by Combined Use of Existing Anti-Cancer Agent>
(§6) Monocytes isolated from bone marrow or peripheral blood of two leukemia patients (one patient is FLT3-ITD mutation-positive, and the other patient is FLT3-ITD mutation-negative) were used and cultured in MethoCult™ H4534 Classic Without EPO (Cat. #H4534, manufacture by […] technologies). During this test, all cell cultures were performed in a CO2 incubator (setting: 37° C., 5% CO2, water vapor saturated). Cells were diluted with medium to 5,000 cells/well/90 μL and seeded on a 96-well plate.
(§7) After serially diluting with DMSO and further diluting with a medium, each of the test substance solutions having a concentration 10 times the final treatment concentration was prepared.
as §1
(§8) After the addition of the drug, cells were cultured for 7 or 8 days, and the cell viability was evaluated using CellTiter-Glo (registered trade mark) Reagent (Cat. #G7570, manufactured by Promega Corporation) using the amount of ATP in the cells as an indicator.
as §2, §3, §4

[3] = system: Cell derived from FLT3-ITD mutation-negative leukemia patient; assay: Proliferation inhibitory activity against cells derived from a leukemia patient by combined use (CellTiter-Glo, combination index), FLT3-ITD negative
Procedure: as §5, §6, §7, §1, §8, §2, §3, §4

[4] = in combination with Compound A1, MV-4-11
[5] = in combination with Compound A1
[6] = in combination with Compound A1, concentration fixing ratio A1:decitabine 1:10, A1:venetoclax 1:1, 7 or 8 days

Q: Which results are given for Venetoclax?
A: combination index (CI), Fa around 0.5 ([1]; in combination with Compound A1 (succinate salt), concentration fixing ratio A1:decitabine 1:3,000, A1:venetoclax 1:120, MV-4-11, 3 days, average of 4 experiments, about 50% suppression of cell viability): ++ (0.7 or more and less than 0.85, a moderate synergistic effect); combination index (CI), Fa around 0.75 ([1]; in combination with Compound A1 (succinate salt), concentration fixing ratio A1:decitabine 1:3,000, A1:venetoclax 1:120, MV-4-11, 3 days, average of 4 experiments, about 75% suppression of cell viability): +++ (Less than 0.7, a strong synergistic effect); combination effect in words, suppression effect around 0.5 [1, 4]: moderate synergistic effect; combination effect in words, suppression effect around 0.75 [1, 4]: strong synergistic effect; combination effect in words, suppression effect around 0.5 [2, 5]: strong synergistic effect; combination effect in words, suppression effect around 0.75 [2, 5]: strong synergistic effect; combination index (CI), Fa around 0.5 [2, 6]: +++ (Less than 0.7, a strong synergistic effect); combination index (CI), Fa around 0.75 [2, 6]: +++ (Less than 0.7, a strong synergistic effect); combination effect in words, suppression effect around 0.5 [3, 5]: strong synergistic effect; combination effect in words, suppression effect around 0.75 [3, 5]: strong synergistic effect; combination index (CI), Fa around 0.5 [3, 6]: +++ (Less than 0.7, a strong synergistic effect); combination index (CI), Fa around 0.75 [3, 6]: +++ (Less than 0.7, a strong synergistic effect)
